These results are taken from US8633188B2, “Aminodihydrothiazine derivatives” (Shionogi & Co., Ltd., priority 2005, dated 2014).

Broadly, the melting point is the temperature, or range, at which the solid turns liquid. What is called IC50 is the point on the concentration scale where inhibition reaches its midpoint.

Chain of recombinant human BACE-1 protein (P56817 46-501): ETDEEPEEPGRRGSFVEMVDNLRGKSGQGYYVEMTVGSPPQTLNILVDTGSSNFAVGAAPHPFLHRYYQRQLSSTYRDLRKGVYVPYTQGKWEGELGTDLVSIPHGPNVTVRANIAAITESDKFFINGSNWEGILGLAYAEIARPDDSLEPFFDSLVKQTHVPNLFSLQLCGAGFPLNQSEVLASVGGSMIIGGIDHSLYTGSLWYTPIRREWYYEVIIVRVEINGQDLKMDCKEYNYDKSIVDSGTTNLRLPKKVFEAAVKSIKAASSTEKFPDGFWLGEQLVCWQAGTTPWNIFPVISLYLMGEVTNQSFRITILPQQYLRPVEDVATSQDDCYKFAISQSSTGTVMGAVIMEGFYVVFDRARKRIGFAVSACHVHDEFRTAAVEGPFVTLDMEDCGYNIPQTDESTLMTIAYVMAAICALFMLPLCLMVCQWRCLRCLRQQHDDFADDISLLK

Tested on in one series: not given
Test: not given
Conditions: not given
Consider `CC1(c2ccccc2)CCOC(N)=N1.Cl` (stereo not drawn), for which the melting point fell in the range of 194 to 195 °C.
The molecule `CC1(c2cccc(NC(=O)c3ccc(C4CC4)cn3)c2)CCSC(N)=N1` (stereo not drawn) [Compound 738] returned a melting point of 181 to 183 °C.
`CC1(c2cccc(NC(=O)c3ncc(Br)cn3)c2)CCSC(N)=N1` (stereo not drawn) [Compound 900]: the melting point was 205 to 207 °C.

For another series, the target named is recombinant human BACE-1 protein (Homo sapiens (Human), UniProt P56817). Briefly: Measurement of inhibition of β-secretase activity (fluorescence-quenched peptide substrate, time-resolved fluorescence). The format is biochemical. Particulars: recombinant human BACE-1 7.4 nM, substrate peptide 18 nM, pH 5.0, 3 h at 30° C.; same test as table 170. As to the method:
Zero point five μL of the test compounds (dissolved in N,N′-dimethylsulfoxide) were incubated with 48.5 μL of the fluorescence-quenched peptide substrate solution (Biotin-XSEVNLDAEFRHDSGC-Eu: X=εe-amino-n-capronic acid,Eu=Europium cryptate) and 1 μL of recombinant human BACE-1 protein (R&D systems) for 3 h at 30° C. in the 96 well half-area plate (black color plate,Costar). The substrate peptide was synthesized by reacting with Biotin-XSEVNLDAEFRHDSGC (Peptide Institute) and Cryptate TBPCOOH mono SMP (CIS bio international). […] The enzymatic reaction was performed in sodium acetate buffer (50 mM sodium acetate (pH 5.0), 0.008% Triton X-100). After the reaction, a 50 μL of 8.0 μg/mL Streptavidin-XL665 (CIS bio international) dissolved in phosphate buffer (150 mM K2HPO4—KH2PO4 (pH 7.0), 0.008% Triton X-100, 0.8 M KF) was add to each well and incubated for 1 h at 30° C.
Turning to `CC1(c2cccc(NC(=O)/C=C/c3cccc(F)c3)c2)CCSC(N)=N1` (stereo not drawn) [Compound 36], the IC50 was < 100 µM.
The same measure, in the same setting: as for `CC1(c2cc(NC(=O)c3ccc(Cl)cc3)cc(S(C)(=O)=O)c2)CCSC(N)=N1` (stereo not drawn) [Compound 30], the figure is < 100 µM.
For `CC1(c2cccc(NC(=O)c3ccnnc3)c2)CCSC(N)=N1` (stereo not drawn) [Compound 1274], the IC50 is < 100 µM.
Same read-out and setting: as for `CC1(c2cccc(CCC(=O)Nc3ccccc3)c2)CCSC(N)=N1` (stereo not drawn) [Compound 732], the figure is < 100 µM; as for `CC1(c2cccc(NC(=O)c3ncc(Br)cn3)c2)CCSC(N)=N1` (stereo not drawn) [Compound 900], < 100 µM.
Regarding `CC1(c2cc(NC(=O)c3ccc(Br)cc3)cc(S(C)(=O)=O)c2)CCSC(N)=N1` (stereo not drawn) [Compound 71], the IC50 was < 100 µM.
